pIC50: −log10 of the molar value.
Key:
[1] = target: IDO1 in Hela cells stimulated with IFNγ (Homo sapiens (Human), UniProt P14902); test: IDO1 Cellular Assay in Hela Cells Stimulated with IFNγ; format: cell-based; settings: IFNγ 100 ng/mL, about 48 hours, fluorescence readout, read-out: IDO1 HELA Cell Assay, IC50
Outline: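 IFNγ-stimulated (100 ng/mL) HeLa cells with 300 uM L-tryptophan were incubated with 10-point 3-fold compound dilutions for about 48 h at 37 °C. Kynurenine product was derivatized with methyl isonipecotate overnight and read by fluorescence (ex 400/em 510 nm). Signal was background-corrected using non-IFNγ cells and normalized to DMSO, and IC50 came from a four-parameter logistic fit.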

[2] = target: IDO1 in human whole blood stimulated with LPS and IFNγ (Homo sapiens (Human), UniProt P14902); test: IDO1 Human Whole Blood Assay; format: cell-based; settings: LPS and IFNγ 100 ng/mL, 18 h, kynurenine by LC/MS/MS
Chain of IDO1 in human whole blood stimulated with LPS and IFNγ (P14902 whole entry): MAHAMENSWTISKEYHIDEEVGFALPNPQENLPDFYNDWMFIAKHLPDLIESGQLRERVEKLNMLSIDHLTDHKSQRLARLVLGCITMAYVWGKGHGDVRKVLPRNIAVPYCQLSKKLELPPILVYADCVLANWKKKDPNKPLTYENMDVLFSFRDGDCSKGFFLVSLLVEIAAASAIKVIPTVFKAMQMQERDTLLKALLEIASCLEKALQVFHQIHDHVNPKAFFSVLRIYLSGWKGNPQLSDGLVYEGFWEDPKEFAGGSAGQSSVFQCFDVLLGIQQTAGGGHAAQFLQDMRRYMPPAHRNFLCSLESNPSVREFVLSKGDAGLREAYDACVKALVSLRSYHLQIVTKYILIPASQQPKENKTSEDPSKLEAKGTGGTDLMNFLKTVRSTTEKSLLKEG
Description: IDO1 Human Whole Blood Assay
Compounds to be tested were serially diluted in ten 3-fold steps in DMSO starting from 10 mM. 3 μL of compound dilutions or DMSO alone were then dispensed from the dilution plate into a polypropylene 96-well assay plate containing 97 μL of RPMI using an Echo 555 acoustic liquid handler (Labcyte). LPS and IFNγ was prepared in RPMI to a 10× of final conc. (1000 ng/mL), final concentration is 100 ng/mL.
Human whole blood was drawn in sodium heparin coated tubes from healthy internal donors. Two hundred forty μL of blood was transferred to each of the wells of a v-bottom 96 well plate. Thirty μL of compound was transferred from intermediate dilution plate, and incubated for 15 min. Thirty μL from stimulants was then transferred to blood and mixed thoroughly. Plate was covered with breathable membrane and incubated at 37° C. for overnight (18 h).
On day 2 isotope labeled standard of kynurenine and tryptophan was made in water at 10× concentration and 30 μL was added to the blood at 3 μM final concentration. The assay plates were centrifuged at 300×G for 10 min with no brake to separate plasma from red blood cells. Sixty μL of plasma samples was removed without disturbing red blood cells. Plasma was diluted with RPMI in 1:1 ratio and proteins were precipitated out with two volume of Acetonitrile. The plates was centrifuged at 4000×G for 60 min. Twenty μL of supernatant was carefully transferred to a 384 well plate contain 40 μL of 0.1% formic acid in water and analyzed by LC/MS/MS.
LC/MS/MS analyses were performed using Thermo Fisher's LX4-TSQ Quantum Ultra system. This system consists of four Agilent binary high-performance liquid chromatography (HPLC) pumps and a TSQ Quantum Ultra triple quadruple MS/MS instrument. For each sample, 5 μL were injected onto an Atlantis T3 column (2.1 mm×150 mm, 3 μm particle size) from Waters. The mobile phase gradient pumped at 0.8 mL/min was used to elute the analytes from the column at 25° C. The elution started at 0% B increasing linearly to 25% B at 6.5 min, holding at 25% for 1 min, re-equilibrating to 10 min. Mobile phase A consisted of 0.1% formic acid in water. Mobile phase B consisted of 0.1% of formic acid in acetonitrile. Data was acquired in positive mode using a HESI interface. The operational parameters for the TSQ Quantum Ultra instrument were a spray voltage of 4000 V, capillary temperature of 380° C., vaporizer temperature 400° C., shealth gas 60 arbitrary units, Aux gas 20 arbitrary units, tube lens 85 and collision gas 1.2 mTorr. SRM chromatograms of kynurenine (Q 1: 209.2>Q3:94.0) and internal standard (Q1: 215.3>Q3:98.2) were collected for 90 sec. The peak area was integrated by Xcalibur Quan software. The ratios between the kynurenine generated in the reaction and 2D6-Kynurenine spiked-in internal standard were used to generate percentage inhibition and IC50 values. Compounds were titrated and IC50's were calculated by 4 parameter sigmoidal curve fitting formula.

HIS-tagged IDO1 protein = HIS-tagged IDO1 protein (Homo sapiens (Human), UniProt P14902); test: IDO1 Enzyme Assay; format: biochemical; settings: recombinant IDO1 40 nM, tryptophan substrate, fluorescence readout
Chain of HIS-tagged IDO1 protein (P14902 whole entry): as above
Outline: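 Recombinant E. coli-expressed HIS-IDO1 (40 nM final) in 50 mM Tris pH 7.0 with methylene blue, ascorbate and catalase, preincubated with compound 30 min at RT, then tryptophan added and reacted 60 min at RT. Quenched with methyl isonipecotate, heated, fluorescence read (ex 400/em 510 nm); IC50 from four-parameter logistic fit.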

Chain of IDO1 in Hela cells stimulated with IFNγ (P14902 whole entry): as above

| pIC50 [1] | IDO1 human whole blood assay, IC50 [2] [nM] | pIC50 (HIS-tagged IDO1 protein) | SMILES |
| --- | --- | --- | --- |
| 7.38 | 314.2 | 7.29 | CC(=O)N[C@H]1C[C@@H](Oc2nonc2/C(=N/O)N[C@H]2Cc3ccc(F)cc32)C1 [Example 36, N-{cis-3-[(4-{N-[(7S)-4-fluorobicyclo[4.2.0]octa-1,3,5-trien-7-yl]-N′-hydroxycarbamimidoyl}-1,2,5-oxadiazol-3-yl)oxy]cyclobutyl}acetamide] |
| 7.13 | 518.6 | 7.17 | O=C(CO)N[C@H]1C[C@@H](Oc2nonc2/C(=N/O)N[C@H]2Cc3ccc(F)cc32)C1 [Example 38, N-{cis-3-[(4-{N-[(7S)-4-fluorobicyclo[4.2.0]octa-1,3,5-trien-7-yl]-N′-hydroxycarbamimidoyl}-1,2,5-oxadiazol-3-yl)oxy]cyclobutyl}-2-hydroxyacetamide] |
| 6.49 | 1414 | 6.86 | O=C(COc1nonc1/C(=N/O)N[C@H]1Cc2ccc(F)cc21)NCCO [Example 4, (S)-2-((4-(N-(4-fluorobicyclo[4.2.0]octa-1(6),2,4-trien-7-yl)-N′-hydroxycarbamimidoyl)-1,2,5-oxadiazol-3-yl)oxy)-N-(2-hydroxyethyl)acetamide] |
| 7.29 | 185.4 | 7.23 | CC(=O)NCCOc1nonc1/C(=N/O)N[C@H]1Cc2ccc(F)cc21 [Example 3, (S)—N-(2-((4-(N-(4-fluorobicyclo[4.2.0]octa-1(6),2,4-trien-7-yl)-N′-hydroxycarbamimidoyl)-1,2,5-oxadiazol-3-yl)oxy)ethyl)acetamide] |
| 6.48 | 954.9 | 6.67 | NC(=O)N[C@H]1C[C@H](Oc2nonc2/C(=N/O)N[C@H]2Cc3ccc(F)cc32)C1 [Example 57, 4-{[trans-3-(carbamoylamino)cyclobutyl]oxy}-N-[(7S)-4-fluorobicyclo[4.2.0]octa-1,3,5-trien-7-yl]-N′-hydroxy-1,2,5-oxadiazole-3-carboximidamide] |
| 7.30 | 500.6 | 7.25 | O=C(N1CC(Oc2nonc2/C(=N/O)N[C@H]2Cc3ccc(F)cc32)C1)C1(O)CC1 [Example 47, N-[(7S)-4-fluorobicyclo[4.2.0]octa-1,3,5-trien-7-yl]-N′-hydroxy-4-{[1-(1-hydroxycyclopropane-1-carbonyl)azetidin-3-yl]oxy}-1,2,5-oxadiazole-3-carboximidamide] |
| 7.18 | 665.5 | 7.25 | O=C(c1nc[nH]n1)N1CC(Oc2nonc2/C(=N/O)N[C@H]2Cc3ccc(F)cc32)C1 [Example 30, N-[(7S)-4-fluorobicyclo[4.2.0]octa-1,3,5-trien-7-yl]-N′-hydroxy-4-{[1-(1H-1,2,4-triazole-3-carbonyl)azetidin-3-yl]oxy}-1,2,5-oxadiazole-3-carboximidamide] |
| 7.05 | 400.3 | 6.99 | C[C@H](O)C(=O)N1CC(Oc2nonc2/C(=N/O)N[C@H]2Cc3ccc(F)cc32)C1 [Example 48, N-[(7S)-4-fluorobicyclo[4.2.0]octa-1,3,5-trien-7-yl]-N′-hydroxy-4-({1-[(2S)-2-hydroxypropanoyl]azetidin-3-yl}oxy)-1,2,5-oxadiazole-3-carboximidamide] |
| 7.23 | 351.3 | 7.32 | CS(=O)(=O)NCCOc1nonc1/C(=N/O)N[C@H]1Cc2ccc(F)cc21 [Example 6, N-[(7S)-4-fluorobicyclo[4.2.0]octa-1,3,5-trien-7-yl]-N′-hydroxy-4-{2-[(methylsulfonyl)amino]ethoxy}-1,2,5-oxadiazole-3-carboximidamide] |
| 6.97 | 666.4 | 7.31 | NS(=O)(=O)NCCOc1nonc1/C(=N/O)N[C@H]1Cc2ccc(F)cc21 [Example 1, (S)—N-(4-fluorobicyclo[4.2.0]octa-1(6),2,4-trien-7-yl)-N′-hydroxy-4-(2-(sulfamoylamino)ethoxy)-1,2,5-oxadiazole-3-carboximidamide] |
| 7.40 | 387.6 | 7.31 | NC(=O)N[C@H]1C[C@@H](Oc2nonc2/C(=N/O)N[C@H]2Cc3ccc(F)cc32)C1 [Example 42, 4-{[cis-3-(carbamoylamino)cyclobutyl]oxy}-N-[(7S)-4-fluorobicyclo[4.2.0]octa-1,3,5-trien-7-yl]-N′-hydroxy-1,2,5-oxadiazole-3-carboximidamide] |
| 6.49 | 714.9 | 6.94 | O=C(CO)NCCOc1nonc1/C(=N/O)N[C@H]1Cc2ccc(F)cc21 [Example 5, N-{2-[(4-{N-[(7S)-4-fluorobicyclo[4.2.0]octa-1,3,5-trien-7-yl]-N′-hydroxycarbamimidoyl}-1,2,5-oxadiazol-3-yl)oxy]ethyl}-2-hydroxyacetamide] |
| 7.05 | 1176 | 7.14 | C[C@@H](CO)NC(=O)COc1nonc1/C(=N/O)N[C@H]1Cc2ccc(F)cc21 [Example 7, 2-[(4-{N-[(7S)-4-fluorobicyclo[4.2.0]octa-1,3,5-trien-7-yl]-N′-hydroxycarbamimidoyl}-1,2,5-oxadiazol-3-yl)oxy]-N-[(2S)-1-hydroxypropan-2-yl]acetamide] |
